Laboratory results from patent US11254654B2, “Heterochromatin gene repression inhibitors” (The University of North Carolina at Chapel Hill, priority 2017, dated 2022).
Where a name gives a salt, the structure may show the parent alone.

How the values were obtained:
[1] = target: T1, G9a (Homo sapiens, UniProt Q96KQ7); assay: In vitro activity against G9a; type: biochemical; details: data not shown
T1 sequence (Q96KQ7 1-1210): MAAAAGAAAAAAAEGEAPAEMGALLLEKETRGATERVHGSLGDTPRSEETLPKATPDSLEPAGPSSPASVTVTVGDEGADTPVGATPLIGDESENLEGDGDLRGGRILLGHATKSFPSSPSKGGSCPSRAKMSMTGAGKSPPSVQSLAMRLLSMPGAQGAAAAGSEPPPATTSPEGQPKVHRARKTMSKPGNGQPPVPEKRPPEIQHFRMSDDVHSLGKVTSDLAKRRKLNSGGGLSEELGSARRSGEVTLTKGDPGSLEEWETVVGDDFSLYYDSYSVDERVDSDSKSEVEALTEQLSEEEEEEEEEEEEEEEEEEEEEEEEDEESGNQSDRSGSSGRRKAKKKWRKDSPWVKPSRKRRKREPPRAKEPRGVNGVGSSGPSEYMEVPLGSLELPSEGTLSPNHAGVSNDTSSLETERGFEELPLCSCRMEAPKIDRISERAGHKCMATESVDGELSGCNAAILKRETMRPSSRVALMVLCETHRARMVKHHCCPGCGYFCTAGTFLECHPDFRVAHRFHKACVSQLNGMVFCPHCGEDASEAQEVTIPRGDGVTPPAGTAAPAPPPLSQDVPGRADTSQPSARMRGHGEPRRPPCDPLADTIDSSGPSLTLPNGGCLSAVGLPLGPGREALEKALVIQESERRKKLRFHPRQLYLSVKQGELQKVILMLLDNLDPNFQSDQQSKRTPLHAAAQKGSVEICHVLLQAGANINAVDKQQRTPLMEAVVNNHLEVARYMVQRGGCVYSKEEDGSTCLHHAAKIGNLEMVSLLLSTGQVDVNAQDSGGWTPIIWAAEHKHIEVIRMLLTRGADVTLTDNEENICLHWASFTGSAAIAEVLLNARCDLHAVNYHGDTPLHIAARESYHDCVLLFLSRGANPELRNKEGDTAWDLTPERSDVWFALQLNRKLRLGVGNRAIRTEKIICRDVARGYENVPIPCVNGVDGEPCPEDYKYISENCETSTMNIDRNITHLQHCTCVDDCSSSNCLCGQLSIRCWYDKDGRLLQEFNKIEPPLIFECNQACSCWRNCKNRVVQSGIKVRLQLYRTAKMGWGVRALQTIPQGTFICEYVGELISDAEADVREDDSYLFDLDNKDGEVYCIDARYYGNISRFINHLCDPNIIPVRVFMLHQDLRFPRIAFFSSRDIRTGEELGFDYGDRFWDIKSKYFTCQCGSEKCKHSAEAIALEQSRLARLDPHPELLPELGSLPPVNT

[2] = target: T2, GLP (Homo sapiens, UniProt Q9H9B1); assay: In vitro activity against GLP; type: biochemical; details: data not shown
T2 sequence (Q9H9B1 1-1298): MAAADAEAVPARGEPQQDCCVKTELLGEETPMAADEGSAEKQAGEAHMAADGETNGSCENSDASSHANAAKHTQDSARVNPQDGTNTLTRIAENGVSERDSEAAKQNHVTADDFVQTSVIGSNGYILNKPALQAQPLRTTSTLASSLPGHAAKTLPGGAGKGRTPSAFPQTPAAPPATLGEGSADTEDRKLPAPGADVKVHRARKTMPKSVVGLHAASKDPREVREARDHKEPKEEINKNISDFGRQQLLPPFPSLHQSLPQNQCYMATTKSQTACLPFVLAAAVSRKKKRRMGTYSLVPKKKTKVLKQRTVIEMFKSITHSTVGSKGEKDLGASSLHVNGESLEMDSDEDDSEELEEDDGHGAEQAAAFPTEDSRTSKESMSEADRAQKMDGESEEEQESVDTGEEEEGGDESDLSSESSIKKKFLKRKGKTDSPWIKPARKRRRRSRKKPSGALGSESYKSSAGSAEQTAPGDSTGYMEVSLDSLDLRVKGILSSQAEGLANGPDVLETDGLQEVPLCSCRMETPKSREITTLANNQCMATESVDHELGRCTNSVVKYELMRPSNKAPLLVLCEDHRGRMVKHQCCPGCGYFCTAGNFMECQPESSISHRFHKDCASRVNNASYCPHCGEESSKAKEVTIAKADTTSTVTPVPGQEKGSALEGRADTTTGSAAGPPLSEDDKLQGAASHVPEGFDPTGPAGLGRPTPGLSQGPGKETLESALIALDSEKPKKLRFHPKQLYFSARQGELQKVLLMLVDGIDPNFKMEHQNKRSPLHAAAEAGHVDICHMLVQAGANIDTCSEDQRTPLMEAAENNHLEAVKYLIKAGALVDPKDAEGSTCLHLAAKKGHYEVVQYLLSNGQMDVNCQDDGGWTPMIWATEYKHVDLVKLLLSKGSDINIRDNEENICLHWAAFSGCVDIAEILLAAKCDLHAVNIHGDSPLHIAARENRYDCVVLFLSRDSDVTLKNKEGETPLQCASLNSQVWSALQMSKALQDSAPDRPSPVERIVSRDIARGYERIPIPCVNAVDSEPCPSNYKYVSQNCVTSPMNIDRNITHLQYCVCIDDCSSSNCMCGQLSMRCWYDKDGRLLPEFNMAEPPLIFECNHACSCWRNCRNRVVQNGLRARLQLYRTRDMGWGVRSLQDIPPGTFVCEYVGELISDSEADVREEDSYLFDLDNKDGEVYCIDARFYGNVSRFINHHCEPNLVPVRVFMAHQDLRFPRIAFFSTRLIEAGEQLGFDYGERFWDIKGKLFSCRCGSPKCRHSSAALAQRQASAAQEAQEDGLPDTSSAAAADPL

[3] = tested on: TC1 ES cells; assay: Whole cell histone modification levels, Western blot densitometry; type: cell-based; details: 48 hrs with compound, normalized over total Histone H4
Method: The ability to reduce global H3K9-me2 and -me3 levels with the novel HP1 inhibitors was previously examined (see FIG. 20). […] Oct4-GFP will be measured by flow cytometry, H3K9me3 enrichment by ChIP, and DNA methylation levels by bisulfite sequencing at 2, 4, and 6 days post RA addition output measurements. Expression and chromatin modifications will also be examined at other RA regulated genes such as […] using GAPDH as a control.
Referring to FIG. 20, TC1 ES cells were incubated 48 hrs with compound. Histones marks were measured by Western blot densitometry with the indicated antibody. The results were normalized over the total Histone H4 as a percentage of untreated controls.

In the case of `COc1cc2nc(N3CCCC3)nc(N[C@H]3CCCNC3)c2cc1OC` [compound 1, (S)-6,7-Dimethoxy-N-(Piperidin-3-yl)-2-(Pyrrolidin-1-yl)Quinazolin-4-Amine Trifluoroacetic Acid Salt], the “Activity against G9a in vitro” value [1] is reported as “no detectable activity”, the “Activity against GLP in vitro” value [2] is reported as “no detectable activity” and the “Bulk di- and tri-H3K9 methylation” value [3] is reported as “significantly block”.
